Measurements published in EP4520333A1, “SYK INHIBITORS FOR USE IN THE TREATMENT OF IMMUNE CHECKPOINT INHIBITION INDUCED ADVERSE EVENTS” (Albert-Ludwigs-Universität Freiburg, priority 2023, dated 2025).

Legend:
[1] = system: B-cell lymphomas; details: in vitro; cited from earlier work
[2] = system: mice; test: Grip strength test; assay type: in vivo; details: melanoma bearing mice
Text: (§1) The invention is further described by the following figures. These are not intended to limit the scope of the invention but represent preferred embodiments of aspects of the invention provided for greater illustration of the invention described herein. • Figure 1: Microglia show signs of activation upon anti-PD-1 treatment in the absence of tumor. (A-C) Histology of brain samples immunostained for Iba-1^+ cells from the cortex of mice treated with anti-PD-1 or isotype control on day 22 after treatment. (A) Representative images from each group are shown. Scale bars, 50µm. The scatter plots show the number of Iba-1^+ cells (per mm^2) in cortex (B) and hippocampus (C). The results (mean ± s.e.m.) were combined. […] The P-values were calculated using the unpaired student's t-test. […] (E-H) Scatter plots showing Imaris-based automated quantification of microglial morphology from microglia the cortex of mice treated with anti-PD-1 or isotype control on day 22 after treatment. […] The P-values were calculated using the unpaired student's t-test. • Figure 2: Anti-PD-1 treatment causes neurocognitive deficits and increased CSF-1R and MHC-II expression on microglia. […] (C-D) The scatter plot (C) and representative histogram (D) show the quantification (fold change of MFI) of CSF-1R (CD115) on microglia (CD45^lo CD11b^+) isolated from the CNS of mice treated with anti-PD-1 or isotype control on day 22. […]

[3] = system: mice; test: Elevated plus maze test; assay type: in vivo; details: melanoma bearing mice, anti-PD-1 plus Syk inhibitor vs anti-PD-1 plus vehicle (Fig. 7L day 17; Fig. 33A)
Text: as §1

[4] = system: mice; test: Novel object recognition test; assay type: in vivo
Text: (§2) The invention is further described by the following figures. These are not intended to limit the scope of the invention but represent preferred embodiments of aspects of the invention provided for greater illustration of the invention described herein. • Figure 1: Microglia show signs of activation upon anti-PD-1 treatment in the absence of tumor. (A-C) Histology of brain samples immunostained for Iba-1^+ cells from the cortex of mice treated with anti-PD-1 or isotype control on day 22 after treatment. (A) Representative images from each group are shown. Scale bars, 50µm. The scatter plots show the number of Iba-1^+ cells (per mm^2) in cortex (B) and hippocampus (C). The results (mean ± s.e.m.) were combined. The experiment was performed three times. The P-values were calculated using the unpaired student's t-test. (D) Representative images showing Imaris (Bitplane)-based 3D-reconstruction of Iba-1^+ microglia from the cortex of mice treated with anti-PD-1 or isotype control as indicated. Scale bar: 10µm. (E-H) Scatter plots showing Imaris-based automated quantification of microglial morphology from microglia the cortex of mice treated with anti-PD-1 or isotype control on day 22 after treatment. […] The P-values were calculated using the unpaired student's t-test. • Figure 2: Anti-PD-1 treatment causes neurocognitive deficits and increased CSF-1R and MHC-II expression on microglia. (A-B) Representative immunofluorescence images and scatter plot depicting the quantification of the ratio of extravascular versus intravascular FITC-dextran indicative of BBB leakage via extravasation of FITC-dextran in the cortex of either untreated, isotype-treated, or anti-PD-1-treated mice. […] (C-D) The scatter plot (C) and representative histogram (D) show the quantification (fold change of MFI) of CSF-1R (CD115) on microglia (CD45^lo CD11b^+) isolated from the CNS of mice treated with anti-PD-1 or isotype control on day 22. […] The P-values were calculated using the student's t-test (B, C, E, K-M) and paired samples Wilcoxon test (G, I). […] The P-values were calculated using the unpaired student's t-test. […]

[5] = system: cells isolated from BM and spleen; test: Flow cytometry of peripheral immune cells from BM and spleen of melanoma-bearing mice; assay type: in vivo
Text: as §2

[6] = system: microglia (CD45lo CD11b+); test: Flow cytometry of microglia / CD11b+ cells isolated from the CNS of mice; assay type: in vivo; details: melanoma bearing mice on CSF-1R inhibitor diet vs control diet (Fig. 6, Fig. 14)
Text: as §1

[7] = system: lymphoma cells; details: reference (45); cited from earlier work

CCS(=O)(=O)N1CCN(c2ccc(Nc3ncc(C(N)=O)c(NC4CC4)n3)cc2)CC1 [Cerdulatinib]
activity against B-cell lymphomas [1]: in vitro activity

COc1cc(Nc2ncc(F)c(Nc3ccc4c(n3)N(COP(=O)(O)O)C(=O)C(C)(C)O4)n2)cc(OC)c1OC [Fostamatinib]
grip strength normalized to body weight ([2]; anti-PD-1 plus Syk inhibitor or vehicle (Fig. 7M day 17; Fig. 33C)): reproducible
entries into open arms (exploratory) [3]: reproducible
time spent exploring a novel object with respect to the total time (memory) ([4]; melanoma bearing mice, anti-PD-1 plus Syk inhibitor vs anti-PD-1 plus vehicle (Fig. 7K day 17; Fig. 33B)): reproducible
peripheral myeloid compartment (CD45+, F4/80+ cells in BM and spleen) ([5]; anti-PD-1/isotype and second Syk inhibitor/vehicle (Fig. 33D-G)): No changes
CD3+ T cells in the BM and spleen ([5]; anti-PD-1/isotype and second Syk inhibitor/vehicle (Fig. 33H and I)): expansion

COc1ncc(F)cc1CNc1ccc(Cc2c[nH]c3ncc(C)cc23)c(F)n1 [PLX5622]
grip strength normalized to body weight ([2]; isotype or anti-PD-1 plus depleting agent or its control, day 23 (Fig. 6C, D, G, H)): intact
CSF-1R positive cells (CD11b+ and CD11b+CD45lo cells in the CNS) [6]: depletion
neurocognitive function in novel object recognition test, anti-PD-1 treated mice ([4]; melanoma bearing mice treated with anti-PD-1 plus depleting agent or its control, day 23 (Fig. 6B, F, J, M, O)): improved
neurocognitive function in novel object recognition test, isotype treated mice ([4]; melanoma bearing mice treated with isotype antibody plus depleting agent or its control, day 23 (Fig. 6A, E)): did not develop neurocognitive deficits
frequencies of CD45, CD11b, Ly6C and CD11c populations in the BM and spleen ([5]; CSF-1R inhibitor diet day -7 to day 23): did not alter

Cn1cc(-c2nc(N[C@@H]3CCCC[C@@H]3N)c(F)c3c2C(=O)NC3)cn1 [TAK-659]
pro-survival, proliferative, chemoresistant, and activation effects promoted by the microenvironment [7]: impair
